Data set [1] can be described thus: Absorbance of xanthommatin alone and with FDA approved organic UV filters, 280-500 nm. The class given is physicochemical. The conditions noted are these: 0.6 mM in DMSO. How it is done:
The performance of ammonium xanthommatin was tested as a broad-spectrum absorber to assess whether the natural optical features of xanthommatin could be used to boost the UV performance of low (<0.2 mM) concentrations of organic UV filters. Xanthommatin's absorbance capabilities were tested alone in solution (FIG. 14) and in combination with FDA approved organic UV filters (FIGS. 15 and 16) over a spectral range of 280-500 nm. We observed a clear relationship between increasing concentrations of xanthommatin and the absorption of UV through visible light (FIG. 14). […] When xanthommatin was combined with the chemical UV filters, a significant increase in both the UVB (300 nm) and UVA (360 nm) range was achieved across all filters tested, where we observed at least a 50% increase in UVA and B performance upon addition with xanthommatin (FIG. 16).

The nature of data set [2]: SPF and critical wavelength of xanthommatin in solution. The class given is physicochemical. The text has this: In certain embodiments, the compositions of the present application provide sun protection. In certain embodiments, the compositions provide an SPF of at least about 15, 30, 60, 100, or other suitable amount of protection. In certain embodiments, the amount of phenoxazone and/or phenoxazine compound, a precursor or derivative thereof, or a salt of any of the foregoing (e.g., xanthommatin, a precursor or derivative thereof, or a salt of any one of the foregoing, such as ammonium xanthommatin) in the composition may be altered or adjusted in order to provide a particular SPF. In certain embodiments, the amount of UV-filtering material (e.g., a UV-absorbing compound or a UV-scattering particle) in the composition may be altered or adjusted in order to provide a particular SPF. […]
SPF was calculated using the derived Mansur equation (Sayre, R. M., et al., A comparison of in vivo and in vitro testing of sunscreening formulas. Photochemistry and Photobiology, 1979. 29(3): p. 559-566) according to Equation 1, SPF=CFΣ290^320EE(λ)I(λ)Abs(λ), where EE (λ) represents the erythemal effect spectrum; I(λ) is solar intensity spectrum; Abs(a) absorbance of UV-filter; CF is the correction factor (=10). […] The calculated SPF values were rounded to the nearest whole number. […]

The test system of data set [3] is BALB/c 3T3 mouse fibroblast cell lines. Kind of data set: in vitro 3T3 NRU phototoxicity assay. It counts as cell-based. As to the method:
Given the UV filter-boosting features of xanthommatin, we next tested its cytotoxicity with and without exposure to a noncytotoxic dose of UVA light (from 315 to 400 nm and a measuring range between 0-199.9 mW/cm2). In these experiments, cytotoxicity was expressed as a concentration dependent reduction of a neutral red dye uptake within BALB/c 3T3 mouse fibroblast cell lines after treatment both with and without the presence of UVA exposure. […] Instead, the mean photo effect was calculated using Equation 5,
where, the photo effect (PE) at any concentration (C) is defined as the product of the response effect (REC) and the dose effect (DEC) concentrations. MPE values of 0.019, 0.199, and 0.042 were measured for the three independent experiments with xanthommatin. […] In this figure, the grey lines represent data collected in the absence of UVA (−UVA), and the black lines represent data collected with exposure to UVA (+UVA). Data was collected for three independent experiments.
Since the toxicological endpoint of this in vitro 3T3 NRU phototoxicity assay was developed and validated in a joint EU/COLIPA project, this assay is a well-recognized in vitro alternative to the various in vivo tests in use.

Data set [4] in a line: Oxygen Radical Antioxidant Capacity (ORAC) assay. The conditions noted are these: for antioxidant activity/capacity compared to known standards (Trolox, vitamin C): 90 minutes at 37° C.; for AUC: single antioxidant, 40 uM. The text has this:
The ORAC assay measures the antioxidant capacity of biomolecules based on the oxidation of a fluorescein probe by peroxyl radicals (Fluorescence decreases as antioxidant capacity decreases).
The antioxidant properties of ammonium xanthommatin (referred to herein as “xanthommatin”) in an unsaturated solution were compared to known standard antioxidants. The results of the experiments are provided in FIGS. 1-3, illustrating the relative fluorescence value (RFU) over time (in seconds) for known antioxidants Trolox (a vitamin E analogue) and ascorbic acid compared to xanthommatin. Experiments were performed using 10, 20, and 40 μM Trolox, ascorbic acid, and ammonium xanthommatin (“Xa”) and compared to performance of 1:1 Trolox:Xa (20 μM: 20 μM and 40 μM: 40 μM) and 1:1 ascorbic acid:Xa (20 μM: 20 μM and 40 μM: 40 μM).
For antioxidant stabilizing/boosting experiments, the antioxidizing capacity and performance of ammonium xanthommatin only and ammonium xanthommatin blended with equimolar ascorbic acid (vitamin C) or Trolox (a vitamin E analogue) over 90 minutes at 37° C. were tested using a standard Oxygen Radical Antioxidant Capacity (ORAC) Assay. The ORAC assay measured the antioxidant capacity of biomolecules based on the oxidation of a fluorescein probe by peroxyl radicals (Fluorescence decreases as antioxidant capacity decreases). The ORAC assay is described in detail at https://www.cellbiolabs.com/sites/default/files/STA-345-orac-assay-kit.pdf, the contents of which are incorporated by reference herein. […] FIG. 19 provides half life measurements of ammonium xanthommatin in solution compared to vitamin C in solution when assayed at the same concentration. […] FIGS. 20 and 21, respectively, show the performance of vitamin C and vitamin E is extended when combined with ammonium xanthommatin.

Data set [5] in a line: UV-boosting properties: UV absorption of chemical UV filters alone and in combination. The settings on record: for reduction of avobenzone UV-A performance: filter combined with avobenzone. The class given is physicochemical. The text has this:
FIGS. 9-11 show the UV absorption behavior of chemical UV filters octinoxate, avobenzone, and oxybenzone, alone, in combination with avobenzone, and in combination with xanthommatin small molecules in unsaturated solution (0.03 wt %).

Data set [6] can be described thus: UV-filter stabilizing properties: UV absorption of chemical UV filters with xanthommatin, day 1 and day 16. The conditions noted are these: xanthommatin at about 0.01 wt %. The class given is physicochemical. The text has this: This boost in stability in the presence of unsaturated solutions of xanthommatin was consistent across all chemical filters tested, including homosalate, octisalate, octocrylene, oxybenzone, and octinoxate. Between 10-100% UV filtering retention was observed over the course of weeks. Solutions including unsaturated solutions of one or more phenoxazone and/or phenoxazine compound, a precursor or derivative thereof, or a salt of any of the foregoing (e.g., xanthommatin, a precursor or derivative thereof, or a salt of any one of the foregoing, such as ammonium xanthommatin) may also boost the stability of UV-filters in the presence of solar simulated light, or solar light.
The UV-filter stabilizing properties of unsaturated solutions of xanthommatin were explored by comparing the behavior of UV-filter stabilizers over time to UV-filter stabilizers in combination with xanthommatin. As shown in FIGS. 4-8, the addition of unsaturated solutions of xanthommatin to solutions including oxybenzone (FIGS. 4A and 4B), avobenzone (FIGS. 5A and 5B), octi and homo-salate (FIGS. 6A and 6B), octinoxate (FIGS. 7A and 7B) and octocrylene (FIGS. 8A and 8B) increased the UV absorption between about 240 and about 310 nm on day 1, relative to the chemical UV filters alone. […]

Setting [7] is: avobenzone combinations, Xa 0.03 wt %.

The results in this text go back to patent US20230381082A1, “PHOTOPROTECTIVE COSMETIC COMPOSITIONS COMPRISING XANTHOMMATIN AS AN ANTIOXIDANT AND UV-FILTER STABILIZER” (SEASPIRE, INC., priority 2020, published 2023).

As usually defined, the EC50 is the concentration that produces a half-maximal response.

In brackets after ≈: the same amount, converted by molar mass. Several values for one entry are separate records, joined by “and”; a condition that tells them apart may be missing. Equal values may be shown once. Entries after “also recorded” stand apart in the source; their conditions may differ. Read-outs that look alike come from different tables or passages of the source.

For `NC(CC(=O)c1cccc2oc3cc(=O)c4[nH]c(C(=O)O)cc(=O)c4c-3nc12)C(=O)O` (centres unmarked) [xanthommatin, Ammonium xanthommatin], the “absorption profile compared to pure organic UV filters” value in data set [1] is given as “broader profile that spanned the UVB through visible light regions”. Besides, in data set [2], the critical wavelength was 385 nm. Further, the phototoxicity classification entry in data set [3] was “not phototoxic; also recorded: neither phototoxic nor a photoirritant”. Moreover, the EC50 entry in data set [3] (−UVA) is listed as “no EC50-value could be calculated”. Moreover, the “relative cell viability at the highest test item concentration” value in data set [3] (−UVA controls, three independent experiments) was 88.5% and 99.3% and 100.6%. Also, in data set [4], the “antioxidant activity/capacity compared to known standards (Trolox, vitamin C)” value was “comparable activity to vitamin c and vitamin e; also recorded: comparable anti-oxidizing capacity to known antioxidant standards”; the AUC is on record as 56. In addition, the “antioxidant activity/capacity compared to known standards (Trolox, vitamin C)” value in data set [4] (listed as ammonium xanthommatin) was “comparable antioxidizing capacity to known antioxidant standards”. Besides, the “half life in solution compared to vitamin C” value in data set [4] (assayed at the same concentration) was “two times longer than vitamin C”. Besides, in data set [4] (compared to antioxidant alone, 10, 20, 40 μM), the “relative fluorescence value (RFU) over time” value is listed as “maintain a high RFU value for greater lengths of time”. For the same molecule, in data set [4] (equimolar blend), the “extension of the performance of vitamin C when combined with ammonium xanthommatin” value came out at 23% and the “extension of the performance of vitamin E when combined with ammonium xanthommatin” value is 9%. The “boost of performance of avobenzone” value in data set [5] (xanthommatin at 0.03 wt %) is recorded as “up to 109%”. The “enhancement of UVB absorbing power of octinoxate and oxybenzone” value in data set [5] (xanthommatin at 0.03 wt %, in some cases) was “more than 250%”. Also, the “boost of activity of avobenzone in UV-A (360 nm)” value in data set [5] (xanthommatin at about 0.03 wt %) is “about 9%”. The “boost of activity/performance of avobenzone in UV-B (300 nm)” value in data set [5] (xanthommatin at about 0.03 wt %, or second filter) is about 250%. Moreover, the “effect on UV absorption and stability of chemical UV filters” value in data set [6] is “enhances the UV absorption properties of the chemical UV filters and stabilizes the chemical UV filters over time”.

`CN(C)CCCN1c2ccccc2Sc2ccc(Cl)cc21` [chlorpromazine, reference compound]: in data set [3] (Mus musculus, BALB/c3T3, light or radiation study, +UVA, exp. 1, read-out: EC50), the EC50 stood at 0.221 µg/mL (≈ 0.693 µM). For the same molecule, the “PIF (photo-irritation-factor = EC50 (−UVA)/EC50(+UVA))” value in data set [3] (exp. 1-3) was 37.81 and 37.74 and 40.33.

In the case of `COc1ccc(C(=O)c2ccccc2)c(O)c1` [Oxy control, oxybenzone], the “reduction of avobenzone UV-A performance” value in data set [5] was “about 46%”. In addition, in data set [5] (oxybenzone, Xa 0.03 wt %), the “UV absorption 290 nm” value amounted to 2 and the “UV absorption 360 nm” value came out at 0.31.

`O=C1O[C@H]([C@@H](O)CO)C(O)=C1O` [AA, ascorbic acid, reference compound]: the AUC in data set [4] was found to be 55.

On to `COc1ccc(C(=O)CC(=O)c2ccc(C(C)(C)C)cc2)cc1` [avo control, avobenzone], for which, in data set [5] (setting [7]), the “UV absorption 300 nm” value is given as 0.31 and the “UV absorption 360 nm” value came to 1.49.

`Cc1c(C)c2c(c(C)c1O)CCC(C)(C(=O)O)O2` (centres unmarked) [Trolox, reference compound] showed an AUC in data set [4] of 55.

Consider `CCCCC(CC)COC(=O)C=Cc1ccc(OC)cc1` (centres unmarked) [octinox control, octinoxate], for which the “reduction of avobenzone UV-A performance” value in data set [5] is listed as about 56%. In data set [5] (octinoxate, Xa 0.03 wt %), the “UV absorption 310 nm” value came to 2.53 and the “UV absorption 360 nm” value is on record as 0.
